PubChem BioAssay AID1963438 (Molecular Pharmacology Branch, DTP, NCI, 2024)

Tested on: NCI-H510 multicellular tumor spheroid growth, % test/control
Assay: Anticancer human tumor NCI-H510 cell line growth inhibition [Asc];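 also: spheroids exposed to agents for 7 days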;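 as to viability, T/C: 100% = DMSO vehicle control wells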
Settings: for IC50: curve of first compound; for viability, T/C: stronger effect = lower value
How it was run: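 Tumor cells were grown as complex spheroids with human endothelial cells (HUVEC) and human mesenchymal stem cells as stroma. Agents were tested alone and in combination, in half-log steps down from the clinical Cmax, or from 10 microM where Cmax was unknown.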

Q: For `Cc1nc(N2CCC3(CC2)COC(C)C3N)c(CO)nc1Sc1ccnc(N)c1Cl` (configuration not stated) + CNC(C)C(=O)NC1CN(S(=O)(=O)c2cccc(S(=O)(=O)N3CCC4CCC(C(=O)NC(c5ccccc5)c5ccccc5)N4C(=O)C(NC(=O)C(C)NC)C3)c2)CCC2CCC(C(=O)NC(c3ccccc3)c3ccccc3)N2C1=O, which IC50 (second compound 0.00316 µM) is on record?
A: > 3 µM

Q: What about the IC50 (second compound 0.01 µM) of the same compound?
A: > 3 µM

Q: What about the IC50 (second compound 0.0316 µM) of the same compound?
A: > 3 µM

Q: What about the IC50 (second compound 0.1 µM) of the same compound?
A: > 3 µM

Q: What about the IC50 (second compound 0.316 µM) of the same compound?
A: > 3 µM

Q: And the IC50 (second compound 1 µM)?
A: > 3 µM

Q: And the viability, T/C (second compound 0.00316 µM, first compound 0.00949 µM)?
A: 103%

Q: What about the viability, T/C (second compound 0.00316 µM, first compound 0.03 µM) of the same compound?
A: 95.3%

Q: And the viability, T/C (second compound 0.00316 µM, first compound 0.0949 µM)?
A: 104%

Q: And the viability, T/C (second compound 0.00316 µM, first compound 0.3 µM)?
A: 89%

Q: What about the viability, T/C (second compound 0.00316 µM, first compound 0.949 µM) of the same compound?
A: 98.5%

Q: What about the viability, T/C (second compound 0.00316 µM, first compound 3 µM) of the same compound?
A: 106%

Q: And the viability, T/C (second compound 0.01 µM, first compound 0.00949 µM)?
A: 102%

Q: What about the viability, T/C (second compound 0.01 µM, first compound 0.03 µM) of the same compound?
A: 108%

Q: And the viability, T/C (second compound 0.01 µM, first compound 0.0949 µM)?
A: 99.9%

Q: And the viability, T/C (second compound 0.01 µM, first compound 0.3 µM)?
A: 105%

Q: What about the viability, T/C (second compound 0.01 µM, first compound 0.949 µM) of the same compound?
A: 93.9%

Q: And the viability, T/C (second compound 0.01 µM, first compound 3 µM)?
A: 102%

Q: What about the viability, T/C (second compound 0.0316 µM, first compound 0.00949 µM) of the same compound?
A: 97.9%

Q: What about the viability, T/C (second compound 0.0316 µM, first compound 0.03 µM) of the same compound?
A: 88.3%

Q: What about the viability, T/C (second compound 0.0316 µM, first compound 0.0949 µM) of the same compound?
A: 95.9%

Q: What about the viability, T/C (second compound 0.0316 µM, first compound 0.3 µM) of the same compound?
A: 99.8%

Q: What about the viability, T/C (second compound 0.0316 µM, first compound 0.949 µM) of the same compound?
A: 94.7%

Q: And the viability, T/C (second compound 0.0316 µM, first compound 3 µM)?
A: 111%

Q: And the viability, T/C (second compound 0.1 µM, first compound 0.00949 µM)?
A: 99.3%

Q: What about the viability, T/C (second compound 0.1 µM, first compound 0.03 µM) of the same compound?
A: 99.2%

Q: What about the viability, T/C (second compound 0.1 µM, first compound 0.0949 µM) of the same compound?
A: 109%

Q: What about the viability, T/C (second compound 0.1 µM, first compound 0.3 µM) of the same compound?
A: 88.1%

Q: And the viability, T/C (second compound 0.1 µM, first compound 0.949 µM)?
A: 99.5%

Q: What about the viability, T/C (second compound 0.1 µM, first compound 3 µM) of the same compound?
A: 106%

Q: What about the viability, T/C (second compound 0.316 µM, first compound 0.00949 µM) of the same compound?
A: 91.8%

Q: What about the viability, T/C (second compound 0.316 µM, first compound 0.03 µM) of the same compound?
A: 117%

Q: What about the viability, T/C (second compound 0.316 µM, first compound 0.0949 µM) of the same compound?
A: 94.9%

Q: What about the viability, T/C (second compound 0.316 µM, first compound 0.3 µM) of the same compound?
A: 98.5%

Q: What about the viability, T/C (second compound 0.316 µM, first compound 0.949 µM) of the same compound?
A: 94.7%

Q: And the viability, T/C (second compound 0.316 µM, first compound 3 µM)?
A: 95%

Q: And the viability, T/C (second compound 1 µM, first compound 0.00949 µM)?
A: 106%

Q: And the viability, T/C (second compound 1 µM, first compound 0.03 µM)?
A: 91.1%

Q: What about the viability, T/C (second compound 1 µM, first compound 0.0949 µM) of the same compound?
A: 104%

Q: And the viability, T/C (second compound 1 µM, first compound 0.3 µM)?
A: 94.3%

Q: And the viability, T/C (second compound 1 µM, first compound 0.949 µM)?
A: 90.6%

Q: And the viability, T/C (second compound 1 µM, first compound 3 µM)?
A: 100%

Q: How did the IC50 (second compound 0.03 µM) turn out when `Cn1ncnc1[C@H]1c2n[nH]c(=O)c3cc(F)cc(c23)N[C@@H]1c1ccc(F)cc1` + CCN1C(C(=O)NC23CCC(C(=O)O)(CC2)CC3)C(c2cccc(Cl)c2F)C2(C(=O)Nc3cc(Cl)ccc32)C12CCCCC2 was run?
A: 0.00783 µM

Q: And the IC50 (second compound 0.0949 µM)?
A: 0.00902 µM

Q: What about the IC50 (second compound 0.3 µM) of the same compound?
A: 0.0156 µM

Q: What about the IC50 (second compound 0.949 µM) of the same compound?
A: 0.0104 µM

Q: What about the IC50 (second compound 3 µM) of the same compound?
A: 0.0134 µM

Q: What about the viability, T/C (second compound 0.03 µM, first compound 0.000316 µM) of the same compound?
A: 114%

Q: What about the viability, T/C (second compound 0.03 µM, first compound 0.001 µM) of the same compound?
A: 93.8%

Q: What about the viability, T/C (second compound 0.03 µM, first compound 0.00316 µM) of the same compound?
A: 77.3%

Q: And the viability, T/C (second compound 0.03 µM, first compound 0.01 µM)?
A: 49.5%

Q: What about the viability, T/C (second compound 0.03 µM, first compound 0.0316 µM) of the same compound?
A: 6.92%

Q: What about the viability, T/C (second compound 0.03 µM, first compound 0.1 µM) of the same compound?
A: 18.1%

Q: And the viability, T/C (second compound 0.0949 µM, first compound 0.000316 µM)?
A: 105%

Q: What about the viability, T/C (second compound 0.0949 µM, first compound 0.001 µM) of the same compound?
A: 97.6%

Q: And the viability, T/C (second compound 0.0949 µM, first compound 0.00316 µM)?
A: 95.4%

Q: And the viability, T/C (second compound 0.0949 µM, first compound 0.01 µM)?
A: 45.4%

Q: What about the viability, T/C (second compound 0.0949 µM, first compound 0.0316 µM) of the same compound?
A: 14.7%

Q: And the viability, T/C (second compound 0.0949 µM, first compound 0.1 µM)?
A: 10.9%

Q: And the viability, T/C (second compound 0.3 µM, first compound 0.000316 µM)?
A: 104%

Q: And the viability, T/C (second compound 0.3 µM, first compound 0.001 µM)?
A: 128%

Q: And the viability, T/C (second compound 0.3 µM, first compound 0.00316 µM)?
A: 96.6%

Q: What about the viability, T/C (second compound 0.3 µM, first compound 0.01 µM) of the same compound?
A: 75.8%

Q: What about the viability, T/C (second compound 0.3 µM, first compound 0.0316 µM) of the same compound?
A: 9.76%

Q: And the viability, T/C (second compound 0.3 µM, first compound 0.1 µM)?
A: 5.7%

Q: What about the viability, T/C (second compound 0.949 µM, first compound 0.000316 µM) of the same compound?
A: 92.5%

Q: And the viability, T/C (second compound 0.949 µM, first compound 0.001 µM)?
A: 118%

Q: What about the viability, T/C (second compound 0.949 µM, first compound 0.00316 µM) of the same compound?
A: 100%

Q: What about the viability, T/C (second compound 0.949 µM, first compound 0.01 µM) of the same compound?
A: 50.9%

Q: And the viability, T/C (second compound 0.949 µM, first compound 0.0316 µM)?
A: 13.4%

Q: What about the viability, T/C (second compound 0.949 µM, first compound 0.1 µM) of the same compound?
A: 7.16%

Q: And the viability, T/C (second compound 3 µM, first compound 0.000316 µM)?
A: 109%

Q: And the viability, T/C (second compound 3 µM, first compound 0.001 µM)?
A: 88.8%

Q: And the viability, T/C (second compound 3 µM, first compound 0.00316 µM)?
A: 102%

Q: And the viability, T/C (second compound 3 µM, first compound 0.01 µM)?
A: 64%

Q: And the viability, T/C (second compound 3 µM, first compound 0.0316 µM)?
A: 6.31%

Q: And the viability, T/C (second compound 3 µM, first compound 0.1 µM)?
A: 10.2%
